Laboratory results: patent US20190119200A1, “TERTIARY AMIDES AND METHOD OF USE” (AbbVie Inc., priority 2016, published 2019)

Key:
LPAR1 = target: T1, LPAR1 (Homo sapiens, UniProt Q92633); assay: LPAR1 FLIPR Assay; assay type: cell-based; settings: U2OS cells stably expressing LPAR1, LPA (EC80), Calcium 6 FLIPR dye; for Emax: read-out: Maximum Inhibition
T1 construct: host or cells: U2OS
Protocol: U2OS cells stably expressing LPAR1 (Life Technologies #K1519A) were plated at 12000 cells/well in growth medium (McCoy's 5A medium(Life Technologies 16600-082)) with 10% dFBS (Life Technologies 26400-036), 0.1 mM non-essential amino acids, 25 mM HEPES, 1 mM sodium pyruvate, 1% penicillin/streptomycin, 50 μg/mL hygromycin, and 100 μg/mL Geneticin® in black-walled, clear-bottom 384-well plates (Corning #3683) and incubated in humidified 5% CO2 at 37° C. overnight. On the day of the assay, medium was removed and 30 μL of 5% Calcium 6 FLIPR dye in assay buffer-HBSS (Life Technologies #14025) containing 20 mM HEPES (Life Technologies #15630-080) was added to the cells. Cells were incubated at 37° C. in the dark for 2 hours. Compounds were 3-fold serial diluted from 10 mM for 11-points using dimethyl sulfoxide. 1 μL of compound in DMSO was diluted in 82.3 μL assay buffer immediately before the assay. Using a FLIPR® TETRA® system, 15 μL of the (4×) compound solutions were first added to the cells, then 15 μL of LPA (EC80) diluted in of assay buffer supplemented with 0.1% BSA was added 3 minutes later to activate the receptor. Changes in fluorescence were measured at wavelengths of 515-575 nm over the course of the experimental run. IC50 values were calculated from curve fits of the ratio data using a four-parameter logistic Hill equation (Assay Explorer 3.3 Client).

[1] = system: LPA-induced MCP-1 in NRK-49F cells; assay: LPA-induced MCP-1 AlphaLISA assay; assay type: cell-based; settings: Rattus norvegicus, final LPA 10 μM, 7 hours; for Emax: read-out: Maximum Inhibition
Protocol: Two days prior to the experiment, NRK-49F cells were plated at 8,000 cells/well in 100 μL of growth medium [DMEM (Life Technologies #11995) with 5% dFBS (Life Technologies #30067-334), 100 units/mL penicillin/streptomycin (Life Technologies #15140122)] in 96-well clear flat bottom polystyrene TC-treated microplate (Corning® #3599) and incubated in humidified 10% CO2 at 37° C. One day prior to the experiment, the cell medium was removed and serum free medium [100 μL/well, DMEM (Life Technologies #11995) with 0.1% fatty acid free BSA (Sigma #A6003)] was added with continued incubation in humidified 10% CO2 at 37° C. overnight. On the day of the assay, test compounds were 1:3 serially diluted in 100% DMSO using a BioTek Precision™ system and then transferred (equivalent volume of DMSO as controls) to a plate in serum free medium [DMEM with 0.1% fatty acid free BSA] using a Biomek® NX workstation to give a 2× compound solution. The cell culture medium was removed, and cells were pre-treated with 50 μL/well of 2× compound in serum free medium [DMEM with 0.1% fatty acid free BSA] at 37° C. for 30 minutes. Following the incubation, 50 μL/well of 20 μM LPA diluted in serum free medium [DMEM with 0.1% fatty acid free BSA] was added to the cells. Serum free medium [DMEM with 0.1% fatty acid free BSA] was used as substitution for low control wells while 20 µM LPA was added to high control wells and test compound wells. 200 µM LPA was added to EC100 wells. Final DMSO concentration was 1% in every well. Final LPA concentration in test compound wells and high control wells was 10 μM. […] After the incubation, cell supernatant was transferred to a new 96 well polypropylene plate (Greiner #651201) where it was sealed and stored at −80° C. On the detection day, 5 μL of thawed cell supernatant was transferred to a new white opaque 384-well microplate (Perkin Elmer #6007299). An AlphaLISA® mouse/rat CCL2/MCP1, Immunoassay Research kit (PerkinElmer #AL509F) was used. A mixture (20 μL/well) of AlphaLISA® Anti-Analyte Accept beads (10 μg/mL final) and Biotinylated Antibody Anti-Analyte (freshly prepared, 1 nM final) was added. The mixture in the wells was mixed and then incubated at room temperature for 1 hour. Then SA-Donor beads (25 μL/well, 40 μg/mL final) were added giving a final volume of 50 μL/well. The contents of the wells were mixed and then incubated at room temperature for 0.5 hour (protect from light). The plate was read using the default Envision™ Alpha protocol (PerkinElmer). IC50 values were calculated from curve fits of the ratio data using a four-parameter logistic Hill equation (Assay Explorer 3.3 Client).

T1 sequence (Q92633 whole entry): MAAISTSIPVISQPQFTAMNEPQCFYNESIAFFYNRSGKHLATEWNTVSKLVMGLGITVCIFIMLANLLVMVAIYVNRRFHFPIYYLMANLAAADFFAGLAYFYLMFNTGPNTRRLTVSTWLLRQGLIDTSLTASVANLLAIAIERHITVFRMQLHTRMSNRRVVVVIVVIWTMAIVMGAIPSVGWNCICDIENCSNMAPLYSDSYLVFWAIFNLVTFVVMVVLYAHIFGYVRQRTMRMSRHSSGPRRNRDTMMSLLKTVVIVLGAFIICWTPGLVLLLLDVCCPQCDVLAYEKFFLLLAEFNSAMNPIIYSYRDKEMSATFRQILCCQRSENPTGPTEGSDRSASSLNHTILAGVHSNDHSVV

SMILES | IC50 (LPAR1) | Emax (LPAR1) | IC50 [1] | Emax [1] | Maximum Inhibition (LPAR1)
COc1cc(C(=O)N(CCCc2cc(Cl)cc(Cl)c2)CCOCC(=O)O)cc(OC)c1C [Example 127, (2-{[3-(3,5-dichlorophenyl)propyl](3,5-dimethoxy-4-methylbenzoyl)amino}ethoxy)acetic Acid] | > 10000 nM | 7% | > 10000 nM | 14% | –
COc1cc(C(=O)N(CCCCC(=O)O)CCCc2ccccc2)ccc1F [Example 81, 5-[(4-fluoro-3-methoxybenzoyl)(3-phenylpropyl)amino]pentanoic Acid] | > 30000 nM | 31% | > 10000 nM | 33% | –
COc1cc(OC)cc(C(=O)N(CCCCC(=O)O)CCCc2ccc(F)cc2)c1 [Example 148, 5-{(3,5-dimethoxybenzoyl)[3-(4-fluorophenyl)propyl]amino}pentanoic Acid] | > 10000 nM | 47% | > 10000 nM | 40% | –
COc1cc(OC)cc(C(=O)N(CCCCC(=O)O)CCCc2ccc(C)o2)c1 [Example 133, 5-{(3,5-dimethoxybenzoyl)[3-(5-methylfuran-2-yl)propyl]amino}pentanoic Acid] | 46 nM | 78% | 3190 nM | 68% | –
COc1cc(C(=O)N(CCCCC(=O)O)CCCCc2ccccc2)cc(OC)c1C [Example 96, 5-[(3,5-dimethoxy-4-methylbenzoyl)(4-phenylbutyl)amino]pentanoic Acid] | 19900 nM | 62% | > 10000 nM | 52% | –
CNS(=O)(=O)NC(=O)CCCCN(CCCc1ccccc1)C(=O)c1cc(OC)c(C)c(OC)c1 [Example 70, 3,5-dimethoxy-4-methyl-N-{5-[(methylsulfamoyl)amino]-5-oxopentyl}-N-(3-phenylpropyl)benzamide] | 56 nM | 98% | 637 nM | 90% | –
COc1cc(C(=O)N(CCCCC(=O)NS(=O)(=O)C2CC2)CCCc2ccccc2)cc(OC)c1C [Example 119, N-{5-[(cyclopropanesulfonyl)amino]-5-oxopentyl}-3,5-dimethoxy-4-methyl-N-(3-phenylpropyl)benzamide] | 97 nM | 92% | 1170 nM | 80% | –
O=C(O)CCCCN(CCCc1ccccc1)C(=O)C1CC(=O)Nc2cc(F)ccc21 (stereo not shown) [Example 170, 5-[(7-fluoro-2-oxo-1,2,3,4-tetrahydroquinoline-4-carbonyl)(3-phenylpropyl)amino]pentanoic Acid] | 333 nM | 81% | > 10000 nM | 50% | –
O=C(O)CCCCN(CCCc1ccccc1)C(=O)C1(c2ccc3c(c2)OCO3)CC1 [Example 27, 5-{[1-(2H-1,3-benzodioxol-5-yl)cyclopropane-1-carbonyl](3-phenylpropyl)amino}pentanoic Acid] | 1060 nM | 65% | – | – | –
COc1cc(C(=O)N(CCCc2ccccc2)C(C)CCCC(=O)O)cc(OC)c1C (stereo not shown) [Example 164, 5-[(3,5-dimethoxy-4-methylbenzoyl)(3-phenylpropyl)amino]hexanoic Acid] | 237 nM | 76% | – | – | –
COc1cc(C(=O)N(CCCCC(=O)O)CCCc2cccc(C(F)(F)F)c2)cc(OC)c1C [Example 40, 5-[(3,5-dimethoxy-4-methylbenzoyl){3-[3-(trifluoromethyl)phenyl]propyl}amino]pentanoic Acid] | 29300 nM | 45% | – | – | –
Cc1cc(C(=O)N(CCCCC(=O)O)CCCc2ccccc2)c2c(C)noc2n1 [Example 172, 5-[(3,6-dimethyl[1,2]oxazolo[5,4-b]pyridine-4-carbonyl)(3-phenylpropyl)amino]pentanoic Acid] | 1460 nM | 63% | – | – | –
CCOC1CC1(C(=O)N(CCCCC(=O)O)CCCc1ccccc1)c1ccc(OC)cc1 (stereo not shown) [Example 149, 5-{[2-ethoxy-1-(4-methoxyphenyl)cyclopropane-1-carbonyl](3-phenylpropyl)amino}pentanoic Acid] | 838 nM | 72% | – | – | –
O=C(O)CCCCN(CCCc1ccccc1)C(=O)c1cccc(OC(F)(F)F)c1 [Example 26, 5-{(3-phenylpropyl)[3-(trifluoromethoxy)benzoyl]amino}pentanoic Acid] | > 30000 nM | 50% | – | – | –
COc1cc(C(=O)N(CCCCC(=O)O)CCCc2ccccc2)cc(OC)c1OCCO [Example 88, 5-{[4-(2-hydroxyethoxy)-3,5-dimethoxybenzoyl](3-phenylpropyl)amino}pentanoic Acid] | 293 nM | 91% | – | – | –
COc1ccc(C2(C(=O)N(CCCCC(=O)O)CCCc3ccccc3)CC(OC)C2)cc1 (stereo not drawn) [Example 158, 5-{[cis-3-methoxy-1-(4-methoxyphenyl)cyclobutane-1-carbonyl](3-phenylpropyl)amino}pentanoic Acid] | 511 nM | – | – | – | 98%
COc1cc(C(=O)N(CCCCC(=O)O)CCCc2ccc(Cl)cc2Cl)cc(OC)c1C [Example 49, 5-{[3-(2,4-dichlorophenyl)propyl](3,5-dimethoxy-4-methylbenzoyl)amino}pentanoic Acid] | 24300 nM | 58% | – | – | –
Cc1nc2c(C(=O)N(CCCCC(=O)O)CCCc3ccccc3)cccc2c(=O)[nH]1 [Example 160, 5-[(2-methyl-4-oxo-3,4-dihydroquinazoline-8-carbonyl)(3-phenylpropyl)amino]pentanoic Acid] | 8020 nM | 63% | – | – | –
COc1cc(OC)cc(C(=O)N(CCCc2ccccc2)CCOCC(=O)O)c1 [Example 15, {2-[(3,5-dimethoxybenzoyl)(3-phenylpropyl)amino]ethoxy}acetic Acid] | 290 nM | 59% | – | – | –
O=C(O)CCCCN(CCCc1ccccc1)C(=O)c1ccc2c(c1)OCCCO2 [Example 23, 5-[(3,4-dihydro-2H-1,5-benzodioxepine-7-carbonyl)(3-phenylpropyl)amino]pentanoic Acid] | 12600 nM | 53% | – | – | –
COc1cc(C(=O)N(CCCCC(=O)O)CCCc2ccc(Cl)cc2)cc(OC)c1C [Example 36, 5-{[3-(4-chlorophenyl)propyl](3,5-dimethoxy-4-methylbenzoyl)amino}pentanoic Acid] | 600 nM | 83% | – | – | –
COc1ccc2c(C(=O)N(CCCCC(=O)O)CCCc3ccccc3)c[nH]c2c1 [Example 65, 5-[(6-methoxy-1H-indole-3-carbonyl)(3-phenylpropyl)amino]pentanoic Acid] | 5020 nM | 49% | – | – | –
COc1cc(C(=O)N(CCCc2ccccc2)CC[S+]([O-])CC(=O)O)cc(OC)c1C (stereo not shown) [Example 53, {2-[(3,5-dimethoxy-4-methylbenzoyl)(3-phenylpropyl)amino]ethanesulfinyl}acetic Acid] | 239 nM | 63% | – | – | –
COc1ccc([C@@H](OC)C(=O)N(CCCCC(=O)O)CCCc2ccccc2)cc1 [Example 66, 5-{[(2R)-2-methoxy-2-(4-methoxyphenyl)acetyl](3-phenylpropyl)amino}pentanoic Acid] | 312 nM | 71% | – | – | –
